In the NIST ThermoML archive (doi:10.1016/j.jct.2018.10.007):

Settings: Liquid, Rate of evaporation

CCCCCCCCCCCCCC[P+](CCCC)(CCCC)CCCC.O=S(=O)([N-]S(=O)(=O)C(F)(F)F)C(F)(F)F
Settings | vapor or sublimation pressure [kPa]
393.28 K | 1.6e-09
395.67 K | 2e-09
398.14 K | 2.9e-09
400.54 K | 4.1e-09
403.07 K | 5.3e-09
405.5 K | 7.3e-09
408.02 K | 1e-08
410.51 K | 1.4e-08
413.04 K | 1.8e-08
415.54 K | 2.5e-08
418.06 K | 3.3e-08
420.57 K | 4.4e-08
423.09 K | 6e-08
425.61 K | 7.6e-08
428.14 K | 1.03e-07
430.65 K | 1.35e-07
433.18 K | 1.7e-07
435.69 K | 2.23e-07
438.18 K | 2.92e-07
440.71 K | 3.73e-07

CCCCCCCCCCCCCC[P+](CCCCCC)(CCCCCC)CCCCCC.O=S(=O)([N-]S(=O)(=O)C(F)(F)F)C(F)(F)F
Settings | vapor or sublimation pressure [kPa]
399.34 K | 2.3e-11
404.33 K | 4.6e-11
405.52 K | 5.3e-11
407.95 K | 7.1e-11
408.01 K | 7.5e-11
409.24 K | 8.6e-11
409.33 K | 8.9e-11
410.52 K | 1e-10
412.96 K | 1.4e-10
413 K | 1.5e-10
413.93 K | 1.7e-10
414.15 K | 1.7e-10
414.24 K | 1.7e-10
414.33 K | 1.7e-10
415.52 K | 2e-10
417.97 K | 2.9e-10
418 K | 2.7e-10
419.13 K | 3.2e-10
419.16 K | 3.3e-10
419.24 K | 3.1e-10
419.33 K | 3.2e-10
420.52 K | 3.8e-10
422.97 K | 5.4e-10
423.01 K | 5.1e-10
423.46 K | 5.2e-10
424.17 K | 6.4e-10
424.24 K | 6.4e-10
424.31 K | 6.1e-10
425.53 K | 7.3e-10
427.91 K | 9.2e-10
427.98 K | 1e-09
428.01 K | 1e-09
429.18 K | 1e-09
429.24 K | 1e-09
429.26 K | 1.1e-09
430.53 K | 1.3e-09
432.25 K | 1.5e-09
433 K | 1.8e-09
433.02 K | 1.7e-09
434.17 K | 2e-09
434.2 K | 1.9e-09
434.24 K | 1.9e-09
435.54 K | 2.3e-09
436.8 K | 2.6e-09
438.01 K | 3.1e-09
438.02 K | 3e-09
439.04 K | 3.4e-09
439.21 K | 3.6e-09
439.23 K | 3.4e-09
440.54 K | 4e-09
441.79 K | 4.6e-09
443.01 K | 5.2e-09
443.03 K | 5.2e-09
443.88 K | 5.8e-09
444.2 K | 5.9e-09
444.26 K | 6.3e-09
445.56 K | 6.9e-09
446.75 K | 8e-09
448.02 K | 8.9e-09
448.07 K | 8.7e-09
449.16 K | 1e-08
449.26 K | 1e-08
450.57 K | 1.2e-08
451.67 K | 1.4e-08
453.06 K | 1.4e-08
454.09 K | 1.7e-08
454.27 K | 1.9e-08
456.51 K | 2.2e-08
458.95 K | 2.8e-08

CCCCCC[P+](CCCCCC)(CCCCCC)CCCCCC.[Br-] [tetrahexylphosphonium bromide]
Settings | vapor or sublimation pressure [kPa]
400.93 K | 3.7e-10
403.37 K | 5.3e-10
403.43 K | 5e-10
408.28 K | 9.5e-10
408.37 K | 9.4e-10
410.79 K | 1.2e-09
410.8 K | 1.3e-09
410.82 K | 1.3e-09
413.22 K | 1.7e-09
413.3 K | 1.7e-09
415.71 K | 2.1e-09
415.72 K | 2.2e-09
415.78 K | 2.3e-09
418.18 K | 2.9e-09
418.27 K | 2.9e-09
420.76 K | 3.9e-09
423.16 K | 5.2e-09
423.23 K | 5.4e-09
425.66 K | 6.9e-09
425.67 K | 6.8e-09
425.75 K | 6.8e-09
428.16 K | 8.8e-09
428.22 K | 8.9e-09
430.73 K | 1.2e-08
433.18 K | 1.5e-08
433.24 K | 1.5e-08
435.67 K | 2e-08
435.68 K | 2e-08
435.75 K | 2e-08
438.21 K | 2.5e-08
438.25 K | 2.6e-08
440.7 K | 3.3e-08
440.72 K | 3.3e-08
440.77 K | 3.4e-08
443.24 K | 4.2e-08
443.29 K | 4.3e-08
445.74 K | 5.5e-08
445.75 K | 5.5e-08
445.79 K | 5.8e-08
448.3 K | 7.2e-08
448.31 K | 7.1e-08
450.8 K | 9.1e-08
450.81 K | 9e-08

CCCCCC[P+](CCCCCC)(CCCCCC)CCCCCC.F[P-](F)(F)(F)(F)F [tetrahexylphosphonium hexafluorophosphate]
Settings | vapor or sublimation pressure [kPa]
395.83 K | 2e-10
400.74 K | 3.8e-10
405.65 K | 7e-10
408.42 K | 1e-09
410.61 K | 1.3e-09
413.37 K | 1.9e-09
415.59 K | 2.4e-09
418.31 K | 3.4e-09
423.24 K | 5.9e-09
428.21 K | 1e-08
430.65 K | 1.4e-08
433.2 K | 1.8e-08
435.66 K | 2.4e-08
438.23 K | 3.1e-08
440.69 K | 4e-08
443.24 K | 5e-08
445.73 K | 6.7e-08
448.28 K | 8.5e-08
451.57 K | 1.23e-07
453.41 K | 1.42e-07

CCCCCCCC[P+](CCCCCCCC)(CCCCCCCC)CCCCCCCC.[Cl-] [tetraoctylphosphonium chloride]
Settings | vapor or sublimation pressure [kPa]
408.38 K | 1.5e-10
410.9 K | 2.3e-10
413.32 K | 2.9e-10
413.46 K | 3.3e-10
415.87 K | 4.2e-10
418.26 K | 5.5e-10
418.44 K | 5.9e-10
420.79 K | 7.9e-10
423.23 K | 1e-09
423.41 K | 1.2e-09
425.8 K | 1.5e-09
428.2 K | 2e-09
428.36 K | 2e-09
430.73 K | 2.7e-09
433.18 K | 3.8e-09
433.31 K | 3.7e-09
435.74 K | 5e-09
438.21 K | 6.7e-09
438.28 K | 6.6e-09
440.77 K | 8.8e-09
443.21 K | 1.2e-08
443.3 K | 1.2e-08
445.8 K | 1.5e-08
448.27 K | 2.1e-08
448.33 K | 2e-08
450.84 K | 2.6e-08
453.31 K | 3.9e-08
453.36 K | 3.4e-08
455.89 K | 4.6e-08
458.4 K | 6.2e-08

CCCCCCC[P+](CCCCCC)(CCCCCC)CCCCCC.O=S(=O)([N-]S(=O)(=O)C(F)(F)F)C(F)(F)F [trihexylheptylphosphonium bis(trifluoromethanesulfonyl)imide]
Settings | vapor or sublimation pressure [kPa]
408.53 K | 6.2e-10
410.91 K | 8.8e-10
413.56 K | 1.1e-09
415.89 K | 1.6e-09
418.57 K | 2.1e-09
420.85 K | 2.8e-09
423.58 K | 3.8e-09
425.82 K | 4.9e-09
428.58 K | 6.7e-09
430.8 K | 8.5e-09
433.58 K | 1.2e-08
435.79 K | 1.5e-08
438.58 K | 2e-08
440.78 K | 2.5e-08
443.58 K | 3.4e-08
445.8 K | 4.2e-08
448.56 K | 5.8e-08
450.83 K | 7e-08
453.59 K | 9.5e-08
455.88 K | 1.16e-07

CCCCCCC[P+](CCCCCC)(CCCCCC)CCCCCC.F[P-](F)(F)(F)(F)F [trihexylheptylphosphonium hexafluorophosphate]
Settings | vapor or sublimation pressure [kPa]
405.87 K | 3.6e-10
408.4 K | 4.9e-10
410.8 K | 6.7e-10
413.34 K | 9e-10
415.74 K | 1.2e-09
418.27 K | 1.6e-09
420.69 K | 2.2e-09
423.22 K | 2.8e-09
425.68 K | 3.8e-09
428.2 K | 4.9e-09
430.66 K | 6.5e-09
433.19 K | 8.4e-09
435.68 K | 1.1e-08
438.21 K | 1.5e-08
440.7 K | 1.9e-08
443.24 K | 2.5e-08
445.74 K | 3.1e-08
448.28 K | 4.2e-08
450.97 K | 5.3e-08
453.32 K | 6.9e-08

CCCCCCCC[P+](CCCCCC)(CCCCCC)CCCCCC.F[P-](F)(F)(F)(F)F [trihexyloctylphosphonium hexafluorophosphate]
Settings | vapor or sublimation pressure [kPa]
408.34 K | 3.4e-10
410.85 K | 4.4e-10
410.96 K | 4.8e-10
413.36 K | 6.3e-10
415.82 K | 8.4e-10
415.89 K | 8e-10
418.37 K | 1.1e-09
420.79 K | 1.5e-09
420.83 K | 1.5e-09
423.37 K | 2e-09
425.75 K | 2.7e-09
425.79 K | 2.7e-09
428.38 K | 3.6e-09
430.75 K | 4.6e-09
430.81 K | 4.7e-09
433.38 K | 6.1e-09
435.72 K | 8e-09
435.73 K | 7.9e-09
438.4 K | 1.1e-08
440.74 K | 1.4e-08
443.39 K | 1.8e-08
445.76 K | 2.3e-08
448.39 K | 3e-08
450.79 K | 3.9e-08
450.8 K | 3.8e-08
453.43 K | 5.1e-08
455.83 K | 6.5e-08
455.85 K | 6.4e-08

CCCCCC[P+](CCCCC)(CCCCCC)CCCCCC.F[P-](F)(F)(F)(F)F [trihexylpentylphosphonium hexafluorophosphate]
Settings | vapor or sublimation pressure [kPa]
403.41 K | 5e-10
405.89 K | 6.6e-10
408.27 K | 8.8e-10
410.78 K | 1.2e-09
413.19 K | 1.6e-09
415.69 K | 2.1e-09
418.15 K | 2.8e-09
420.65 K | 3.7e-09
423.13 K | 4.8e-09
425.62 K | 6.5e-09
428.15 K | 8.5e-09
430.63 K | 1.1e-08
433.15 K | 1.4e-08
435.65 K | 1.8e-08
438.17 K | 2.4e-08
440.7 K | 3.1e-08
443.21 K | 3.9e-08
445.73 K | 5.1e-08
448.25 K | 6.5e-08
450.79 K | 8.3e-08
